According to PMC7263640 (Journal of visualized experiments : JoVE, 2019):

Target: T1, Olfr1377 (Mus musculus, UniProt B2RQ46)
T1 sequence (B2RQ46 1-307): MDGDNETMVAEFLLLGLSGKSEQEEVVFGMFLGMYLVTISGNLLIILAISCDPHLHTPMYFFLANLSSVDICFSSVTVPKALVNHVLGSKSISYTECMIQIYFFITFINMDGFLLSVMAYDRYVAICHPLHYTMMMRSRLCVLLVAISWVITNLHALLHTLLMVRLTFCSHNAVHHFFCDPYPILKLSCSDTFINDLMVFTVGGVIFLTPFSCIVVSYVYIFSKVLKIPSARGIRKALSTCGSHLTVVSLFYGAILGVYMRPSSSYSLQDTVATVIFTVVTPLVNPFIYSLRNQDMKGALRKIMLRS
Experiment: GloSensor cAMP luminescence in Hana3A cells, vapor-phase odorant
Format: cell-based

## CC(=O)c1ccccc1 [acetophenone]
  EC50: 161 µM
